Test results from ChEMBL document CHEMBL4825706, “Synthesis and biological evaluation of selenogefitinib for reducing bleomycin-induced pulmonary fibrosis” (Bioorg Med Chem Lett, 2021).
Calls of active or inactive are those of the source. The calls are words filed in the database; no cut-off is given here.

Columns and labels:
Mus musculus [1] = assay: Antifibrotic activity in C57BL mouse model of BLM-induced lung fibrosis assessed as reduction in alveolar wall thickness by measuring lung coefficient at 60 mg/kg by hematoxylin and eosin staining based assay (reference value: 12.89 +/- 2.52 g); type: functional
Mus musculus [2] = assay: Antifibrotic activity in C57BL mouse model of BLM-induced lung fibrosis assessed as reduction in collagen deposition in the lung at 60 mg/kg by masson staining method; type: functional, organism-based
Mus musculus [3] = assay: Antifibrotic activity in C57BL mouse model of BLM-induced lung fibrosis assessed as HYP level at 60 mg/kg (reference value: 5.31 +/- 0.79 ug/mg); type: functional
Mus musculus [4] = assay: Antifibrotic activity in C57BL mouse model of BLM-induced lung fibrosis assessed as MDA content at 60 mg/kg measured after 14 days (reference value: 9.93 +/- 1.41 nmol/ml); type: functional; conditions: time 14 day
Mus musculus [5] = assay: Antifibrotic activity in C57BL mouse model of BLM-induced lung fibrosis assessed as IL-4 level in blood at 60 mg/kg measured after 14 days by flow cytometry (reference value: 2.72 +/- 0.14 pg/ml); type: functional; conditions: time 14 day
Mus musculus [6] = assay: Antifibrotic activity in C57BL mouse model of BLM-induced lung fibrosis assessed as IL-6 level in blood at 60 mg/kg measured after 14 days by flow cytometry (reference value: 2.36 +/- 0.16 pg/ml); type: functional; conditions: time 14 day
Mus musculus [7] = assay: Antifibrotic activity in C57BL mouse model of BLM-induced lung fibrosis assessed as TNF-alpha level in blood at 60 mg/kg measured after 14 days by flow cytometry (reference value: 3.12 +/- 0.11 pg/ml); type: functional; conditions: time 14 day
[8] = molecular target: Epidermal growth factor receptor (Homo sapiens, UniProt P00533); assay: Inhibition of EGFR (unknown origin) by ADP-Glo kinase assay
L02 = assay: Cytotoxicity against human L02 cells assessed as inhibition of cell growth measured by CCK8 assay; type: functional, cell-based
[9] = Cytotoxicity against human HBE cells assessed as inhibition of cell growth measured by CCK8 assay; type: ADME, cell-based
Mus musculus [10] = assay: Antifibrotic activity in C57BL mouse model of BLM-induced lung fibrosis assessed as reduction in infiltration of inflammatory cells at 60 mg/kg by hematoxylin and eosin staining based assay; type: functional, organism-based

Epidermal growth factor receptor, sequence (P00533 whole entry): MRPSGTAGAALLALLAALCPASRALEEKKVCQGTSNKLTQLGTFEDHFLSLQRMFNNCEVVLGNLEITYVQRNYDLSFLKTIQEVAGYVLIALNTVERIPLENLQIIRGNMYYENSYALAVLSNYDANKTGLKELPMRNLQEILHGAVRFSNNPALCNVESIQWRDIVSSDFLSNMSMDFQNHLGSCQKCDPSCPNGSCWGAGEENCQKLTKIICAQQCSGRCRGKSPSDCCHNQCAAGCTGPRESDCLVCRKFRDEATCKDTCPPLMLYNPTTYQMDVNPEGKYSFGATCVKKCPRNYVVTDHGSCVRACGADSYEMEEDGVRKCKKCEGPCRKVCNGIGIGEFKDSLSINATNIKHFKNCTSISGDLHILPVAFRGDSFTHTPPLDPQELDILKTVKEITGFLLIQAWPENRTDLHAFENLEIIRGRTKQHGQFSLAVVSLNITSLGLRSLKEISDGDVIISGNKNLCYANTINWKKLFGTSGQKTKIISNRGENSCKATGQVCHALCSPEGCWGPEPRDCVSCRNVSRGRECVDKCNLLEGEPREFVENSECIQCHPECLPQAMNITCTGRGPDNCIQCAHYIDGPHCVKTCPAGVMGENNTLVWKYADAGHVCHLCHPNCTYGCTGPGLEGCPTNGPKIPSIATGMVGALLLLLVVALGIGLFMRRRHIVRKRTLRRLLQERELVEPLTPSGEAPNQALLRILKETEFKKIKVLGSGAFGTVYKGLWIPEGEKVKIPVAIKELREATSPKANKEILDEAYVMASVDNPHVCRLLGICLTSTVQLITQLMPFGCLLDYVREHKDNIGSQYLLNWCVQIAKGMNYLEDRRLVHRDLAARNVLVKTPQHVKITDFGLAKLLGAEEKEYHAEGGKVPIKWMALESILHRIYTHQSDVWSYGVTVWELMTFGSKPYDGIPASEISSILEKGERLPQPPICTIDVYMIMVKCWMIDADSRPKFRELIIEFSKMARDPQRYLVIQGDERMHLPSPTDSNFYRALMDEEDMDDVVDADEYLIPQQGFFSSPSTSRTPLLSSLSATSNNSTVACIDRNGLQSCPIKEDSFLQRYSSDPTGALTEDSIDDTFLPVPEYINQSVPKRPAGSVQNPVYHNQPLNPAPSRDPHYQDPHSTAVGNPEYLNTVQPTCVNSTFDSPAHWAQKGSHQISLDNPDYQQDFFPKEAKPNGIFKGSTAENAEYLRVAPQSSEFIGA

| SMILES | Activity (Mus musculus [1]) [g] | Activity (Mus musculus [2]) | Activity (Mus musculus [3]) [µg/mg] | Activity (Mus musculus [4]) [nmol/mL] | Activity (Mus musculus [5]) [pg/mL] | Activity (Mus musculus [6]) [pg/mL] | Activity (Mus musculus [7]) [pg/mL] | IC50 [8] [nM] | IC50 (L02) [µM] | IC50 [9] [µM] | Activity (Mus musculus [10]) |
| --- | --- | --- | --- | --- | --- | --- | --- | --- | --- | --- | --- |
| COc1cc2ncnc(Nc3ccc(F)c(Cl)c3)c2cc1OCCCN1CCOCC1 [GEFITINIB] | 9.7 | Active | 3.39 | 8.92 | 2.17 | 1.77 | 2.39 |  |  |  |  |
| COc1cc2ncnc(Nc3ccc(F)c(Cl)c3)c2cc1OCCCN1CC[Se]CC1 | 7.56 | Active | 3.01 | 6.13 | 1.72 | 1 | 1.56 | 25.3 | 13.8 | 21.8 | Active |
